We go through 19 compounds from patent US20250289804A1, “SUBSTITUTED INDOLE COMPOUNDS AND METHODS OF USE THEREOF” (NOVARTIS PHARMA AG, priority 2021, published 2025).

Read-outs that look alike come from different tables or passages of the source.

In one assay the target is human C3bBb (Homo sapiens (Human), UniProt P00751). The experiment in a line: Human C3bBb enzyme assay (C3a generation from C3, ELISA). In kind it is biochemical. Here is the method: Compounds disclosed herein were evaluated for their potency to inhibit human C3bBb in a biochemical assay. To generate active C3bBb complex in vitro, purified human C3b (Complement Technology, A114), CFB (Complement Technology, A135) and CFD (Complement Technology, A136) were mixed in a 1:1:1 ratio to a final concentration of 1 μM each in the C3bBb assay buffer (PBS pH 7.4, 100 μM NiCl2, 0.05% (w/v) CHAPS). The reaction mix was incubated at room temperature for 30 minutes on a rotating platform. […] On the day of the enzyme assay, a reaction mixture containing 3 nM C3bBb complex and 1 μM purified human C3 (Complement Technology, A113) was prepared in the C3bBb assay buffer. Compounds were serial diluted 3-fold in 100% DMSO for a 10-point dose-response curve. A 0.5 μL aliquot of diluted compound solution was transferred to a conical bottom 96-well plate, before 49.5 μL of the reaction mix was added to each well to initiate the reaction. The plate was incubated for 1 hour at room temperature. […] The generation of C3a from C3 by the C3bBb complex was measured using the MicroVue C3a Plus EIA ELISA kit (Quidel, A031). The concentration of C3a from each well was calculated using a standard curve. Percent inhibition values were generated using the baseline (C3 only) and the maximum control (DMSO instead of compound), and IC50 of each compound was calculated using 4-parameter logistic regression.
Sequence of human C3bBb (P00751 260-764): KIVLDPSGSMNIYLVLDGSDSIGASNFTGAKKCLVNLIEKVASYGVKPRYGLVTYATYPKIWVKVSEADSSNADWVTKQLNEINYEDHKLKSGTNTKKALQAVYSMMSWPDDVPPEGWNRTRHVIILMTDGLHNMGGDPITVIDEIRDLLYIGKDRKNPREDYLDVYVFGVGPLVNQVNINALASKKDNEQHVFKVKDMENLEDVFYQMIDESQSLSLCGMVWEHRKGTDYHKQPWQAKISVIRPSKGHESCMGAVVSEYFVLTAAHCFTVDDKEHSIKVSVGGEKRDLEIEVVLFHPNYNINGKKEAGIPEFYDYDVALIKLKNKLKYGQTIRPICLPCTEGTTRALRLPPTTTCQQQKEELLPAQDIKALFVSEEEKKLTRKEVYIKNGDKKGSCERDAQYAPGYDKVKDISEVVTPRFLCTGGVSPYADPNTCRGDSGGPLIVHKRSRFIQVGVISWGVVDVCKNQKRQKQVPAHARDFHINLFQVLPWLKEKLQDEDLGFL
Sequence of human C3bBb (P01024 23-667 partner): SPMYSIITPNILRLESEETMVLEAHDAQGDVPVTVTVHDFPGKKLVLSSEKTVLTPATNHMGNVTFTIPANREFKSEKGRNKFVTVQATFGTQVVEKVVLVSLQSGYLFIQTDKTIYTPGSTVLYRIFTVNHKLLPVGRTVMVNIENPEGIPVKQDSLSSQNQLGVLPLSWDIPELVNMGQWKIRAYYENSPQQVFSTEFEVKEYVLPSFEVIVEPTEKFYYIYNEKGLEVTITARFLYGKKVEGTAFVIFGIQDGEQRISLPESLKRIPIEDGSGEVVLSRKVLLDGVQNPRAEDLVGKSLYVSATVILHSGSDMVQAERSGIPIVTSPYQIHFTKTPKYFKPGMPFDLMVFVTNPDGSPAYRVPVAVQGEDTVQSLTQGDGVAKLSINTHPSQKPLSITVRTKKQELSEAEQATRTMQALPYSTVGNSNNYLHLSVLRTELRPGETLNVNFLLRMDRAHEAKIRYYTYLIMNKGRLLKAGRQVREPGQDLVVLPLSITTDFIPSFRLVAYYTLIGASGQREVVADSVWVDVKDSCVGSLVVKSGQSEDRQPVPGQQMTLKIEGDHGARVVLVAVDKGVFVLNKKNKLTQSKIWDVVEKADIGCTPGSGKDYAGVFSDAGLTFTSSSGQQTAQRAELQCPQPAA
Sequence of human C3bBb (P01024 749-1663 partner): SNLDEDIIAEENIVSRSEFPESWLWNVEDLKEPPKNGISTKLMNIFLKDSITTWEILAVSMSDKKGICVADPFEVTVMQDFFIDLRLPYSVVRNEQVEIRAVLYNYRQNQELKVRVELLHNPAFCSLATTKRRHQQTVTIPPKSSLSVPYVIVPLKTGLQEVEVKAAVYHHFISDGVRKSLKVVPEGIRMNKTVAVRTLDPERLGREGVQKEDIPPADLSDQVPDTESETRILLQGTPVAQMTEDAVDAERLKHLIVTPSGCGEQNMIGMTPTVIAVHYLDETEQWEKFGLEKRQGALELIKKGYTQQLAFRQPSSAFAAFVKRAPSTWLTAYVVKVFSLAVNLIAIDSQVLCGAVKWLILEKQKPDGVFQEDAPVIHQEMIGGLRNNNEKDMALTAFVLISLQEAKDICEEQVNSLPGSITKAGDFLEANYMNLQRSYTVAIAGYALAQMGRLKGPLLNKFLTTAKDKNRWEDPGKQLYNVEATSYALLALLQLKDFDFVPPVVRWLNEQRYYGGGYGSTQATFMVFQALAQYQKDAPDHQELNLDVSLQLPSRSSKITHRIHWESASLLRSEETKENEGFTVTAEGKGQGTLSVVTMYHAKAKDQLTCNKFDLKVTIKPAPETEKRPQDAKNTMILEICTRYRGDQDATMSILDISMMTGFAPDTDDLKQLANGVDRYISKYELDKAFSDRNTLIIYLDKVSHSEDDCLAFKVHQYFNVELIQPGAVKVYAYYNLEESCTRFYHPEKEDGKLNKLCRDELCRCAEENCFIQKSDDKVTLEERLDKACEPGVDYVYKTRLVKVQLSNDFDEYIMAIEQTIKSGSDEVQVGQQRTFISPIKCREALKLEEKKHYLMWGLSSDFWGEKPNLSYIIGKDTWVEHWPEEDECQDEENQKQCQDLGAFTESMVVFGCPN
On the technique in general: An ELISA detects its analyte on a solid surface through an enzyme-linked reagent.

Assay [1] has as its system MAC formation in normal human serum. The experiment in a line: Human serum MAC formation assay (zymosan-coated plates, 50% normal human serum). Conditions: 50% normal human serum with EGTA, 37° C. 30 minutes. The procedure:
MAC deposition assay using normal human serum was applied to evaluate compound potency under physiologically relevant conditions. Black Maxisorp plates (Thermo Fisher, 437111) were coated with preactivated zymosan (Complement Technology, B400) at 0.5 mg/mL in carbonate buffer (pH 9.5, Sigma, C3041) at room temperature overnight. Compounds were serial diluted 3-fold in 100% DMSO for a 10-point dose-response curve. Normal human serum (Complement Technology, NHS) was diluted to 50% (v/v) with the gelatin buffer (4.2 mM HEPES pH 7.4, 0.15 mM CaCl2, 141 mM NaCl, 4.5 mM MgCl2, 0.1% gelatin) containing 20 mM EGTA or 20 mM EDTA. In conical bottom 96-well plates, 1 μL compound and 99 μL of serum-EGTA were mixed. Serum-EDTA was used as baseline control. The serum-compound mixture was incubated at room temperature for 15 minutes before being transferred to the washed zymosan plate for complement activation at 37° C. for 30 minutes. The reaction was terminated by decanting the reaction mixture and adding blocking buffer (Thermo Fisher, 37539) for 20 minutes. MAC formation on the ELISA plate was detected using 0.2 μg/mL mouse anti-human C9 neoepitope monoclonal antibody (Thermo Fisher, MA5-33373) diluted in phosphate-buffered saline with 0.05% Tween-20 (PBST). A goat anti-mouse IgG-HRP antibody (Thermo Fisher, A16072) was used at 1:2000 in PBST as secondary antibody. After washing, the reaction was developed using QuantaBlu (Thermo Fisher, 15169) for 20 minutes at room temperature. The plates were read at 325 nm excitation and 420 nm emission wavelengths. Percent inhibition values were generated using the baseline (EDTA-serum) and the maximum control (EGTA-serum). An IC50 for each compound was calculated using 4-parameter logistic regression.

The mark [2] stands for this setting: starred values: assay conducted with 1 nM C3b:Bb enzyme, read-out: Human C3b:Bb IC50 Avg.
The mark [3] stands for this setting: 3 nM C3bBb complex, 1 μM human C3, 1 hour room temperature, read-out: Human C3b:Bb IC50 Avg.

For `COc1cc(C)c2[nH]ccc2c1CN1CC[C@H](C2CCC2)C[C@H]1c1ccc(C(=O)O)cc1` (mixture of isomers) [Example 43, 4-((2S,4S)-4-cyclobutyl-1-((5-methoxy-7-methyl-1H-indol-4-yl)methyl)piperidin-2-yl)benzoic acid and 4-((2S,4R)-4-cyclobutyl-1-((5-methoxy-7-methyl-1H-indol-4-yl)methyl)piperidin-2-yl)benzoic acid], the IC50 at human C3bBb (setting [2]) was 50 to 100 nM; in assay [1], greater than 500 nM. For the compound `COc1cc(C)c2[nH]ccc2c1CN1CC[C@H](n2cc(Br)cn2)C[C@H]1c1ccc(C(=O)O)cc1` (racemic) [Example 2, (±)-trans-4-(4-(4-bromo-1H-pyrazol-1-yl)-1-((5-methoxy-7-methyl-1H-indol-4-yl)methyl)piperidin-2-yl)benzoic acid], the IC50 lay in the range of 50 to 100 nM at human C3bBb (setting [3]) and 300 to 500 nM in assay [1].

As for `COc1cc(C)c2[nH]ccc2c1CN1CC[C@H](n2cncn2)C[C@H]1c1ccc(C(=O)O)cc1` (racemic) [Example 3, (±)-trans-4-(1-((5-methoxy-7-methyl-1H-indol-4-yl)methyl)-4-(1H-1,2,4-triazol-1-yl)piperidin-2-yl)benzoic acid], the IC50 at human C3bBb (setting [3]) is 10 to 25 nM; in assay [1], greater than 500 nM.

For `COc1cc(C)c2[nH]ccc2c1CN1CC[C@H](n2cnc(C(F)(F)F)n2)C[C@H]1c1ccc(C(=O)O)cc1` (racemic) [Example 5, (±)-trans-4-(1-((5-methoxy-7-methyl-1H-indol-4-yl)methyl)-4-(3-(trifluoromethyl)-1H-1,2,4-triazol-1-yl)piperidin-2-yl)benzoic acid], in assay [1], the IC50 is greater than 500 nM. The same measure, in the same setting: with `COc1cc(C)c2[nH]ccc2c1CN1CC[C@H](n2cc3ccccc3n2)C[C@H]1c1ccc(C(=O)O)cc1` (racemic) [Example 6, (±)-trans-4-(4-(2H-indazol-2-yl)-1-((5-methoxy-7-methyl-1H-indol-4-yl)methyl)piperidin-2-yl)benzoic acid] the figure was greater than 500 nM.

Consider `COc1cc(C)c2[nH]ccc2c1CN1CC[C@H](n2cc(C(F)F)cn2)C[C@H]1c1ccc(C(=O)O)cc1` (racemic) [Example 7, (±)-trans-4-(4-(4-(difluoromethyl)-1H-pyrazol-1-yl)-1-((5-methoxy-7-methyl-1H-indol-4-yl)methyl)piperidin-2-yl)benzoic acid], for which the figures for the IC50 (at human C3bBb (setting [2]); in assay [1]) were less than 10 nM and 100 to 200 nM, respectively. Turning to `COc1cc(C)c2[nH]ccc2c1CN1CC[C@H](n2cccn2)C[C@H]1c1ccc(C(=O)O)cc1` (racemic) [Example 9, (±)-trans-4-(1-((5-methoxy-7-methyl-1H-indol-4-yl)methyl)-4-(1H-pyrazol-1-yl)piperidin-2-yl)benzoic acid], the IC50 on human C3bBb (setting [3]) was greater than 100 nM; in assay [1] it was greater than 500 nM. For `COc1cc(C)c2[nH]ccc2c1CN1CC[C@H](n2cc(S(C)(=O)=O)cn2)C[C@H]1c1ccc(C(=O)O)cc1` (racemic) [Example 11, (±)-trans-4-(1-((5-methoxy-7-methyl-1H-indol-4-yl)methyl)-4-(4-methylsulfonyl)-1H-pyrazol-1-yl)piperidin-2-yl)benzoic acid], the 50% inhibitory concentration (IC50) at human C3bBb (setting [3]) is greater than 100 nM; in assay [1] it was greater than 500 nM. For the compound `COc1cc(C)c2[nH]ccc2c1CN1CC[C@H](N2CCCC2=O)C[C@H]1c1ccc(C(=O)O)cc1` (racemic) [Example 12, (±)-trans-4-(1-((5-methoxy-7-methyl-1H-indol-4-yl)methyl)-4-(2-oxopyrrolidin-1-yl)piperidin-2-yl)benzoic acid], the IC50 against human C3bBb (Human C3b:Bb IC50 Avg (nM), 3 nM C3bBb complex, 1 μM human C3, 1 hour room temperature) is greater than 100 nM; in assay [1], 300 to 500 nM. Take `COc1cc(C)c2[nH]ccc2c1CN1CC[C@H](NCC(F)(F)F)C[C@H]1c1ccc(C(=O)O)cc1` (racemic) [Example 14, (+)-trans-4-(1-((5-methoxy-7-methyl-1H-indol-4-yl)methyl)-4-((2,2,2-trifluoroethyl)amino)piperidin-2-yl)benzoic acid]: the IC50 at human C3bBb (setting [3]) was in the range of 10 to 25 nM; in assay [1], 100 to 200 nM. The like results for `COc1cc(C)c2[nH]ccc2c1CN1CC[C@H](NS(N)(=O)=O)C[C@H]1c1ccc(C(=O)O)cc1` (racemic) [Example 16, (±)-trans-4-(1-((5-methoxy-7-methyl-1H-indol-4-yl)methyl)-4-(sulfamoylamino)piperidin-2-yl)benzoic acid] were, in that order, greater than 100 nM and 300 to 500 nM.

As to `COc1cc(C)c2[nH]ccc2c1CN1CC[C@H](NC2COC2)C[C@H]1c1ccc(C(=O)O)cc1` (racemic) [Example 17, (+)-trans-4-(1-((5-methoxy-7-methyl-1H-indol-4-yl)methyl)-4-(oxetan-3-ylamino)piperidin-2-yl)benzoic acid], the IC50 on human C3bBb (setting [3]) was 10 to 25 nM; in assay [1], 100 to 200 nM. As to `COc1cc(C)c2[nH]ccc2c1CN1CCC2(COC2)CC1c1ccc(C(=O)O)cc1` (racemic) [Example 31, (±)-4-(7-((5-methoxy-7-methyl-1H-indol-4-yl)methyl)-2-oxa-7-azaspiro[3.5]nonan-6-yl)benzoic acid], the figures for the IC50 (at human C3bBb (setting [2]); in assay [1]) were less than 10 nM and greater than 500 nM, respectively. With `COc1cc(C)c2[nH]ccc2c1CN1CC[C@H](c2ccccc2)C[C@H]1c1ccc(C(=O)O)cc1` (racemic) [Example 37, (±)-trans-4-(1-((5-methoxy-7-methyl-1H-indol-4-yl)methyl)-4-phenylpiperidin-2-yl)benzoic acid], the IC50 was greater than 100 nM on human C3bBb (setting [3]) and greater than 500 nM in assay [1].

Regarding `COc1cc(C)c2[nH]ccc2c1CN1CC2(CCCC2)C1c1ccc(C(=O)O)cc1` (racemic) [Example 39, (±)-4-(2-((5-methoxy-7-methyl-1H-indol-4-yl)methyl)-2-azaspiro[3.4]octan-1-yl)benzoic acid], the IC50 at human C3bBb (setting [3]) was greater than 100 nM; in assay [1], 300 to 500 nM. Turning to `COc1cc(C)c2[nH]ccc2c1CN1CC[C@H](N2CC(C(F)(F)F)C2)C[C@H]1c1ccc(C(=O)O)cc1` (racemic) [Example 71, (±)-trans-4-1-((5-methoxy-7-methyl-1H-indol-4-yl)methyl)-4-(3-(trifluoromethyl)azetidin-1-yl)piperidin-2-yl)benzoic acid], the IC50 on human C3bBb (setting [2]) was less than 10 nM; in assay [1] it was 300 to 500 nM. `COc1cc(C)c2[nH]ccc2c1CN1CC[C@@]2(CCCO2)C[C@H]1c1ccc(C(=O)O)cc1` (single isomer, unassigned) [Example 33, 4-((5S,7S)-8-((5-methoxy-7-methyl-1H-indol-4-yl)methyl)-1-oxa-8-azaspiro[4.5]decan-7-yl)benzoic acid or 4-((5R,7S)-8-((5-methoxy-7-methyl-1H-indol-4-yl)methyl)-1-oxa-8-azaspiro[4.5]decan-7-yl)benzoic acid]: the IC50 at human C3bBb (setting [2]) is greater than 100 nM; in assay [1] it was greater than 500 nM. In assay [1], `COc1cc(C)c2[nH]ccc2c1CN1CC[C@H](NCC2(C(F)(F)F)CC2)C[C@H]1c1ccc(C(=O)O)cc1` [Example 27, 4-((2S,4S)-1-((5-methoxy-7-methyl-1H-indol-4-yl)methyl)-4-(((1-(trifluoromethyl)cyclopropyl)methyl)amino)piperidin-2-yl)benzoic acid] had an IC50 of 100 to 200 nM. `COc1cc(C)c2[nH]ccc2c1CN1CC[C@H](C2CC2)C[C@H]1c1ccc(C(=O)O)cc1` [Example 41, 4-((2S,4S)-4-cyclopropyl-1-((5-methoxy-7-methyl-1H-indol-4-yl)methyl)piperidin-2-yl)benzoic acid] showed an IC50 in assay [1] of 100 to 200 nM.

What is called IC50 is the concentration that gives 50% inhibition.
